Read-outs that look alike come from different tables or passages of the source. *1 amine or outer side, *2 acyl side, *3 side chain or, on linkers, in order; H or OH if unused. Where a SMILES comes first, the peptide text is derived from it. Bridges are numbered along the chain shown (N, C = ends). Roman numbers before positions name the chains, in order. [ ]: non-standard residue; d: D form. The star is where a group is joined. cisHyp = O=C(O)[C@@H]1C[C@H](O)CN1; pXylylene = c1cc(C[*:2])ccc1C[*:1]; NHPhenethyl = c1ccc(CCN*)cc1; Tle = CC(C)(C)[C@H](N)C(=O)O; NMeA = CN[C@@H](C)C(=O)O
System: SKOV-3 cells
Assay: Survival MTT assay, SKOV-3
Format: cell-based
Conditions: Homo sapiens, SK-OV-3, 72 h
Description: One day prior the treatment with compound, 2000 to 4000 cells per well were plated in a tissue culture treated 96 well format dish with 100 ul of media and incubated at 37° C., 5% CO2. On the day of compound treatment, compounds were diluted with cell culture media to a working stock concentration of 2×. 100 uL of diluted compound were then added to each well. The treated plate was incubated for 72 h at 37° C., 5% CO2. Upon incubation, the cell viability was assessed as followed 20 uL of MTT reagent at 5 mg/ml were added per well to cell plate. The plate was incubated for 2 h at 37° C. in presence of 5% CO2. The supernatant was then removed from the plate and 100 uL of isopropanol were added. The absorbance was measured in a TECAN spectrophotometer at 570 nm. The percentage of viability was expressed in percentage of the signal obtained with non treated cells.

Row | Structure (SMILES) | EC50 (read-out: SKOV-3 EC50) | EC50 (read-out: EC50 against SKOV3)
1 | CN[C@@H](C)C(=O)C[C@H](C(=O)N1C[C@@H](NC(=O)CCCCCCCC(=O)N[C@H]2C[C@@H](C(=O)N[C@@H]3CCCc4ccccc43)N(C(=O)[C@@H](NC(=O)[C@H](C)NC)C(C)(C)C)C2)C[C@H]1C(=O)N[C@@H]1CCCc2ccccc21)C(C)(C)C [Compound 12] | < 50 nM | –
2 | CN[C@@H](C)C(=O)N[C@H](C(=O)N1CC(NC(=O)CCCCCC(=O)N[C@H]2C[C@@H](C(=O)N[C@@H]3CCCc4ccccc43)N(C(=O)[C@@H](NC(=O)[C@H](C)NC)C(C)(C)C)C2)C[C@H]1C(=O)NC1CCCc2ccccc21)C(C)(C)C (stereo partly shown) [Compound 13] | < 50 nM | –
3 | CN[C@@H](C)C(=O)N[C@H](C(=O)N1C[C@@H](NC(=O)CCCC(=O)N[C@H]2C[C@@H](C(=O)N[C@@H]3CCCc4ccccc43)N(C(=O)[C@@H](NC(=O)[C@H](C)NC)C(C)(C)C)C2)C[C@H]1C(=O)NC1CCCc2ccccc21)C(C)(C)C (stereo partly shown) [Compound 14] | < 50 nM | –
4 | CN[C@@H](C)C(=O)N[C@H](C(=O)N1C[C@@H](NC(=O)Cc2ccc(CC(=O)N[C@H]3C[C@@H](C(=O)N[C@@H]4CCCc5ccccc54)N(C(=O)[C@@H](NC(=O)[C@H](C)NC)C(C)(C)C)C3)cc2)C[C@H]1C(=O)N[C@@H]1CCCc2ccccc21)C(C)(C)C [Compound 15] | < 50 nM | –
5 | CN[C@@H](C)C(=O)N[C@H](C(=O)N1C[C@@H](NC(=O)c2ccc(Oc3ccc(C(=O)N[C@H]4C[C@@H](C(=O)N[C@@H]5CCCc6ccccc65)N(C(=O)[C@@H](NC(=O)[C@H](C)NC)C(C)(C)C)C4)cc3)cc2)C[C@H]1C(=O)N[C@@H]1CCCc2ccccc21)C(C)(C)C [Compound 16] | < 50 nM | –
6 | CN[C@@H](C)C(=O)N[C@H](C(=O)N1C[C@@H](OCc2ccc(CO[C@H]3C[C@@H](C(=O)N[C@@H]4CCCc5ccccc54)N(C(=O)[C@@H](NC(=O)[C@H](C)NC)C(C)(C)C)C3)cc2)C[C@H]1C(=O)N[C@@H]1CCCc2ccccc21)C(C)(C)C [Compound 17] | < 50 nM | –
7 | CN[C@@H](C)C(=O)N[C@H](C(=O)N1C[C@@H](NC(=O)c2ccc(C(=O)N[C@H]3C[C@@H](C(=O)OC)N(C(=O)[C@@H](NC(=O)[C@H](C)NC)C(C)(C)C)C3)cc2)C[C@H]1C(=O)OC)C(C)(C)C [Compound 18] | > 1000 nM | –
8 | CN[C@@H](C)C(=O)N[C@H](C(=O)N1C[C@@H](NC(=O)c2ccc(C(=O)N[C@H]3C[C@@H](C(=O)NCCc4ccc(F)cc4)N(C(=O)[C@@H](NC(=O)[C@H](C)NC)C(C)(C)C)C3)cc2)C[C@H]1C(=O)NCCc1ccc(F)cc1)C(C)(C)C [Compound 19] | < 50 nM | –
9 | CN[C@@H](C)C(=O)N[C@H](C(=O)N1C[C@@H](NC(=O)c2ccc(C(=O)N[C@H]3C[C@@H](C(=O)NCCc4ccccc4)N(C(=O)[C@@H](NC(=O)[C@H](C)NC)C(C)(C)C)C3)cc2)C[C@H]1C(=O)NCCc1ccccc1)C(C)(C)C [Compound 20] | < 50 nM | –
10 | CN[C@@H](C)C(=O)N[C@H](C(=O)N1C[C@@H](NC(=O)c2ccc(C(=O)N[C@H]3C[C@@H](C(=O)NC[C@H](C)c4ccccc4)N(C(=O)[C@@H](NC(=O)[C@H](C)NC)C(C)(C)C)C3)cc2)C[C@H]1C(=O)NC[C@@H](C)c1ccccc1)C(C)(C)C [Compound 21] | < 50 nM | –
11 | CN[C@@H](C)C(=O)N[C@H](C(=O)N1C[C@@H](NC(=O)c2ccc(C(=O)N[C@H]3C[C@@H](C(=O)NC(C)C)N(C(=O)[C@@H](NC(=O)[C@H](C)NC)C(C)(C)C)C3)cc2)C[C@H]1C(=O)NC(C)C)C(C)(C)C [Compound 22] | < 250 nM | –
12 | CN[C@@H](C)C(=O)N[C@H](C(=O)N1C[C@@H](NC(=O)c2ccc(C(=O)N[C@H]3C[C@@H](C(=O)N[C@@H]4CCCc5ccccc54)N(C(=O)[C@@H](NC(=O)[C@H](C)NC)C(C)(C)C)C3)cc2)C[C@H]1C(=O)N[C@H]1CCCc2ccccc21)C(C)(C)C [Compound 23] | < 50 nM | –
13 | CN[C@@H](C)C(=O)N[C@H](C(=O)N1C[C@@H](NC(=O)c2ccc(C(=O)N[C@H]3C[C@@H](C(=O)NC(c4ccccc4)c4ccccc4)N(C(=O)[C@@H](NC(=O)[C@H](C)NC)C(C)(C)C)C3)cc2)C[C@H]1C(=O)NC(c1ccccc1)c1ccccc1)C(C)(C)C [Compound 24] | < 50 nM | –
14 | CN[C@@H](C)C(=O)N[C@H](C(=O)N1C[C@@H](NC(=O)c2ccc(C(=O)N[C@H]3C[C@@H](CN(CCc4ccccc4)C(C)=O)N(C(=O)[C@@H](NC(=O)[C@H](C)NC)C(C)(C)C)C3)cc2)C[C@H]1CN(CCc1ccccc1)C(C)=O)C(C)(C)C [Compound 25] | < 50 nM | –
15 | CN[C@@H](C)C(=O)N[C@H](C(=O)N1C[C@@H](NC(=O)c2ccc(C(=O)N[C@H]3C[C@@H](CN(CCc4ccccc4)S(C)(=O)=O)N(C(=O)[C@@H](NC(=O)[C@H](C)NC)C(C)(C)C)C3)cc2)C[C@H]1CN(CCc1ccccc1)S(C)(=O)=O)C(C)(C)C [Compound 26] | < 250 nM | –
16 | CN[C@@H](C)C(=O)N[C@H](C(=O)N1C[C@@H](NC(=O)c2ccc(C(=O)N[C@H]3C[C@@H](CN(CCc4ccccc4)C(=O)c4ccccc4)N(C(=O)[C@@H](NC(=O)[C@H](C)NC)C(C)(C)C)C3)cc2)C[C@H]1CN(CCc1ccccc1)C(=O)c1ccccc1)C(C)(C)C [Compound 27] | < 250 nM | –
17 | CN[C@@H](C)C(=O)N[C@H](C(=O)N1C[C@@H](NC(=O)c2ccc(C(=O)N[C@H]3C[C@@H](CN(CCc4ccc(F)cc4)C(C)=O)N(C(=O)[C@@H](NC(=O)[C@H](C)NC)C(C)(C)C)C3)cc2)C[C@H]1CN(CCc1ccc(F)cc1)C(C)=O)C(C)(C)C [Compound 28] | < 50 nM | –
18 | CN[C@@H](C)C(=O)N[C@H](C(=O)N1C[C@@H](OCc2ccc(CO[C@H]3C[C@@H](C(=O)NCCc4ccccc4)N(C(=O)[C@@H](NC(=O)[C@H](C)NC)C(C)(C)C)C3)cc2)C[C@H]1C(=O)NCCc1ccccc1)C(C)(C)C [Compound 29] (I: H-[NMeA]-[Tle]-[cisHyp]-NHPhenethyl / II: H-[NMeA]-[Tle]-[cisHyp]-NHPhenethyl; linker I:3-II:3 via pXylylene) | < 250 nM | 88 nM
19 | CN[C@@H](C)C(=O)N[C@H](C(=O)N1C[C@@H](NC(=O)c2ccc(C(=O)N[C@H]3C[C@@H](CN(CCc4ccc(F)cc4)S(C)(=O)=O)N(C(=O)[C@@H](NC(=O)[C@H](C)NC)C(C)(C)C)C3)cc2)C[C@H]1CN(CCc1ccc(F)cc1)S(C)(=O)=O)C(C)(C)C [Compound 30] | > 1000 nM | 188 nM
20 | CN[C@@H](C)C(=O)N[C@H](C(=O)N1C[C@@H](NC(=O)c2ccc(C(=O)N[C@H]3C[C@@H](C(=O)NCC(c4ccccc4)c4ccccc4)N(C(=O)[C@@H](NC(=O)[C@H](C)NC)C(C)(C)C)C3)cc2)C[C@H]1C(=O)NCC(c1ccccc1)c1ccccc1)C(C)(C)C [Compound 31] | < 250 nM | –
21 | CN[C@@H](C)C(=O)N[C@H](C(=O)N1C[C@@H](NC(=O)c2ccc(C(=O)N[C@H]3C[C@@H](C(=O)NCc4cccc5ccccc45)N(C(=O)[C@@H](NC(=O)[C@H](C)NC)C(C)(C)C)C3)cc2)C[C@H]1C(=O)NCc1cccc2ccccc12)C(C)(C)C [Compound 32] | < 250 nM | –
22 | CN[C@@H](C)C(=O)N[C@H](C(=O)N1C[C@@H](NS(=O)(=O)c2cccc(S(=O)(=O)N[C@H]3C[C@@H](C(=O)N[C@@H]4CCCc5ccccc54)N(C(=O)[C@@H](NC(=O)[C@H](C)NC)C(C)(C)C)C3)c2)C[C@H]1C(=O)N[C@@H]1CCCc2ccccc21)C(C)(C)C [Compound 33] | < 50 nM | –
23 | CN[C@@H](C)C(=O)N[C@H](C(=O)N1C[C@@H](NC(=O)c2ccc(C(=O)N[C@H]3C[C@@H](C(=O)N[C@@H]4CCCc5ccccc54)N(C(=O)[C@@H](NC(=O)[C@H](C)NC)C(C)(C)C)C3)cc2)C[C@H]1C(=O)NC1CCCc2ccccc21)C(C)(C)C (stereo partly shown) [Compound 34] | < 250 nM | –
24 | CN[C@@H](C)C(=O)N[C@H](C(=O)N1C[C@@H](NC(=O)CNC(=O)c2ccc(C(=O)NCC(=O)N[C@H]3C[C@@H](C(=O)N[C@@H]4CCCc5ccccc54)N(C(=O)[C@@H](NC(=O)[C@H](C)NC)C(C)(C)C)C3)cc2)C[C@H]1C(=O)N[C@@H]1CCCc2ccccc21)C(C)(C)C [Compound 35] | < 250 nM | –
25 | CN[C@@H](C)C(=O)N[C@H](C(=O)N1C[C@@H](NC(=O)CNC(=O)C(=O)NCC(=O)N[C@H]2C[C@@H](C(=O)N[C@@H]3CCCc4ccccc43)N(C(=O)[C@@H](NC(=O)[C@H](C)NC)C(C)(C)C)C2)C[C@H]1C(=O)N[C@@H]1CCCc2ccccc21)C(C)(C)C [Compound 36] | > 1000 nM | –
26 | CN[C@@H](C)C(=O)NC(C(=O)N1C[C@@H](NC(=O)CNC(=O)c2cccc(C(=O)NCC(=O)N[C@H]3C[C@@H](C(=O)N[C@@H]4CCCc5ccccc54)N(C(=O)[C@@H](NC(=O)[C@H](C)NC)C(C)(C)C)C3)c2)CC1C(=O)N[C@@H]1CCCc2ccccc21)C(C)(C)C (stereo partly shown) [Compound 37] | > 1000 nM | –
27 | CN[C@@H](C)C(=O)N[C@H](C(=O)N1C[C@@H](NC(=O)CNC(=O)c2ccc(-c3ccc(C(=O)NCC(=O)N[C@H]4C[C@@H](C(=O)N[C@@H]5CCCc6ccccc65)N(C(=O)[C@@H](NC(=O)[C@H](C)NC)C(C)(C)C)C4)cc3)cc2)C[C@H]1C(=O)N[C@@H]1CCCc2ccccc21)C(C)(C)C [Compound 38] | < 250 nM | –
28 | CN[C@@H](C)C(=O)N[C@H](C(=O)N1C[C@@H](NS(=O)(=O)c2ccc(-c3ccc(S(=O)(=O)N[C@H]4C[C@@H](C(=O)N[C@@H]5CCCc6ccccc65)N(C(=O)[C@@H](NC(=O)[C@H](C)NC)C(C)(C)C)C4)cc3)cc2)C[C@H]1C(=O)NC1CCCc2ccccc21)C(C)(C)C (stereo partly shown) [Compound 39] | < 50 nM | –
29 | CN[C@@H](C)C(=O)N[C@H](C(=O)N1C[C@@H](NC(=O)c2cccc(C(=O)N[C@H]3C[C@@H](C(=O)N[C@@H]4CCCc5ccccc54)N(C(=O)[C@@H](NC(=O)[C@H](C)NC)C(C)(C)C)C3)c2)C[C@H]1C(=O)N[C@@H]1CCCc2ccccc21)C(C)(C)C [Compound 40] | < 50 nM | –

Source: patent US9365614B2, “IAP BIR domain binding compounds” (priority 2006, dated 2016)
